This test deals with Jurkat IL-2 Production. Kind of test: Jurkat IL-2 Production Assay. In kind it is cell-based. To be noted: Homo sapiens, Jurkat cell (ATCC), 18-20 h incubation, PHA 5 μg/mL with 1% FBS, or PMA/Ionomycin with 30% FBS (table does not say which). In short, it runs like this:
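Jurkat cells were exposed to compound (0.25% DMSO final) for 10 min, then stimulated for 18–20 h at 37 °C. The 1% FBS condition used 5 μg/mL PHA; the high-serum condition (30% FBS) used 50 ng/mL PMA plus 500 ng/mL ionomycin. IC50 was derived from IL-2 production.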
`Cc1cc(C#N)ccc1-c1ccc2[nH]c(-c3c(C)noc3C)cc2c1` [Example 151, 4-(2-(3,5-dimethylisoxazol-4-yl)-1H-indol-5-yl)-3-methylbenzonitrile] returned an IC50 of 158 nM. On to `Cc1cc(S(=O)(=O)N(C)C)ccc1-c1ccc2[nH]c(-c3ccccc3F)c(C)c2c1` [Example 225, 4-(2-(2-fluorophenyl)-3-methyl-1H-indol-5-yl)-N,N,3-trimethylbenzenesulfonamide], for which half-maximal inhibition (IC50) required 153 nM. In turn, `Cc1cnccc1-c1cc2cc(-c3nc(-c4ccccn4)sc3C)ccc2[nH]1` [Example 10, 2-(3-Methyl-pyridin-4-yl)-5-(5-methyl-2-pyridin-2-yl-thiazol-4-yl)-1H-indole] returned an IC50 of 190 nM. As to `CCn1nc(C(F)(F)F)cc1-c1ccc2[nH]c(-c3c(F)cccc3F)cc2c1` [Example 46, 2-(2,6-Difluoro-phenyl)-5-(2-ethyl-5-trifluoromethyl-2H-pyrazol-3-yl)-1H-indole], half-maximal inhibition (IC50) required 44 nM. This IC50 is about 4.3-fold lower than that of the compound before. With `Cc1cc(S(C)(=O)=O)ncc1-c1ccc2[nH]c(-c3cnccc3C)cc2c1` [Example 214, 5-(6-Methanesulfonyl-4-methyl-pyridin-3-yl)-2-(4-methyl-pyridin-3-yl)1indole], half-maximal inhibition (IC50) was put at 41 nM. The IC50 values of the last two compounds are within 1.5-fold of each other. Compound `COc1ncc(-c2ccc3[nH]c(-c4c(F)cccc4F)cc3c2)c(OC)n1` [Example 93, 2-(2,6-Difluoro-phenyl)-5-(2,4-dimethoxy-pyrimidin-5-yl)-1H-indole] returned an IC50 of 921 nM.

As for `Cn1nc(C(F)(F)F)cc1-c1ccc2[nH]c(-c3cc(F)ccc3Cl)cc2c1` [Example 42, 2-(2-Chloro-5-fluoro-phenyl)-5-(2-methyl-5-trifluoromethyl-2H-pyrazol-3-yl)-1H-indole], inhibition was half-maximal at 204 nM (IC50). With `Cn1nc(-c2ccccn2)cc1-c1ccc2[nH]c(-c3cc(F)ccc3Cl)cc2c1` [Example 82, 2-(2-Chloro-5-fluoro-phenyl)-5-(2-methyl-5-pyridin-2-yl-2H-pyrazol-3-yl)-1H-indole] the figure was 367 nM. With `Cc1sc(-c2ccccn2)nc1-c1ccc2[nH]c(-c3c(Cl)cccc3Cl)cc2c1` [Example 217, 2-(2,6-Dichloro-phenyl)-5-(5-methyl-2-pyridin-2-yl-thiazol-4-yl)-1H-indole] the figure was 100 nM; with `CCn1nc(-c2ccccc2)cc1-c1ccc2[nH]c(-c3c(F)cccc3F)cc2c1` [Example 15, 2-(2,6-difluoro-phenyl)-5-(2-ethyl-5-phenyl-2H-pyrazol-3-yl)-1H-indole], 468 nM; with `Cc1sc(-c2cccnc2)nc1-c1ccc2[nH]c(-c3cncnc3C(C)C)cc2c1` [Example 68, 2-(4-Isopropyl-pyrimidin-5-yl)-5-(5-methyl-2-pyridin-3-yl-thiazol-4-yl)-1H-indole], 152 nM. The same measure for `Cc1cc(C#N)ccc1-c1ccc2[nH]c(-c3c(F)cc(OCCCO)cc3F)cc2c1` [Example 156, 4-(2-(2,6-difluoro-4-(3-hydroxypropoxy)phenyl)-1H-indol-5-yl)-3-methylbenzonitrile]: 130 nM. As for `Cc1ccc(-c2ncco2)cc1-c1ccc2[nH]c(-c3c(F)cccc3F)cc2c1` [Example 23, 2-(2,6-Difluoro-phenyl)-5-(2-methyl-5-oxazol-2-yl-phenyl)-1H-indole], half-maximal inhibition (IC50) was put at 210 nM. In turn, `CCn1nc(-c2cnccn2)cc1-c1ccc2[nH]c(-c3c(F)cccc3Cl)cc2c1` [Example 183, 2-(2-chloro-6-fluorophenyl)-5-(1-ethyl-3-(pyrazin-2-yl)-1H-pyrazol-5-yl)-1H-indole] registered an IC50 of 28 nM. As to `Cc1noc(C)c1-c1cc2cc(-c3cc(C(F)(F)F)nn3C)ccc2[nH]1` [Example 45, 2-(3,5-Dimethyl-isoxazol-4-yl)-5-(2-methyl-5-trifluoromethyl-2H-pyrazol-3-yl)-1H-indole], the IC50 was determined as 375 nM. On to `COC(=O)c1ccc(-c2ccc3[nH]c(-c4ccc(C(=O)OC)cc4C)cc3c2)c(C)c1` [Example 131, 4-[5-(4-carbomethoxy-2-methyl-phenyl)-1H-indol-2-yl]-3-methyl-benzoic acid methyl ester], for which the IC50 is 149 nM. In the case of `Cn1nc(-c2cccnc2)nc1-c1ccc2[nH]c(-c3c(F)cccc3Cl)cc2c1` [Example 116, 2-(2-Chloro-6-fluoro-phenyl)-5-(2-methyl-5-pyridin-3-yl-2H-[1,2,4]-triazol-3-yl)-1H-indole], the IC50 is 12 nM. In the case of `CCn1nc(-c2cnccn2)cc1-c1ccc2[nH]c(-c3cnccc3C)cc2c1` [Example 211, 5-(2-Ethyl-5-pyrazin-2-yl-2H-pyrazo-1-3-yl)-2-(4-methyl-pyridin-3-yl)-1H-indole], half-maximal inhibition (IC50) was put at 124 nM. Regarding `Cn1nc(-c2ccccn2)cc1-c1ccc2[nH]c(-c3ccc(F)cc3Cl)cc2c1` [Example 83, 2-(2-Chloro-4-fluoro-phenyl)-5-(2-methyl-5-pyridin-2-yl-2H-pyrazol-3-yl)-1H-indole], it took 358 nM to reach half-maximal inhibition (IC50).

On to `Cc1cc(C#N)ccc1-c1ccc2[nH]c(-c3ccccc3F)cc2c1` [Example 136, 4-(2-(2-fluorophenyl)-1H-indol-5-yl)-3-methylbenzonitrile], for which the 50% inhibitory concentration (IC50) is 370 nM.

`Cc1cc(C(N)=O)ccc1-c1ccc2[nH]c(-c3c(F)cccc3F)cc2c1` [Example 89, 4-[2-(2,6-Difluoro-phenyl)-1H-indol-5-yl]-3-methyl-benzamide] gave an IC50 of 451 nM. This IC50 and that of the compound before are within 1.5-fold of each other. For the compound `COC(=O)c1ccc(-c2ccc3[nH]c(-c4ccccc4Cl)cc3c2)c(C)c1` [Example 126], half-maximal inhibition (IC50) required 106 nM. In the case of `Cn1nc(-c2cccnc2)cc1-c1ccc2[nH]c(-c3ccc(F)cc3Cl)cc2c1` [Example 86, 2-(2-Chloro-4-fluoro-phenyl)-5-(2-methyl-5-pyridin-3-yl-2H-pyrazol-3-yl)-1H-indole], it took 118 nM to reach half-maximal inhibition (IC50).

One may read the IC50 as the concentration needed to halve the response being measured. High values mean weaker potency in that assay, low ones greater potency in that assay.
